Patent US6448282B1, “1H-4(5)-substituted imidazole derivatives” (Gliatech, Inc., priority 1995, dated 2002)

Columns and labels:
Histamine H3 receptor = target: T1, Histamine H3 receptor (Rattus norvegicus, UniProt Q9QYN8); assay: In vitro histamine H3 receptor binding analysis, [3H]-Nα-methylhistamine, rat cortical membranes; conditions: Ki=IC50/(1+([Ligand]/[Kd])
T1 construct: from tissue; host or cells: rat cerebral cortex membranes
Method: Briefly, animals were sacrificed by decapitation and the cerebral cortex was rapidly removed. Rat cortices were mechanically homogenized with an Omni 1000 motor driven homogenizer in 10 volumes (wt/vol) of Krebs-Ringers Hepes buffer (pH 7.4) containing the following protease inhibitors; EDTA (10 mM), PMSF (0.1 mM), chymostatin (0.2 mg/50 ml) and leupeptin (0.2 mg/50 ml). The homogenate was centrifuged in a Sorvall at ˜40,000×g for 30 min. The pellet was resuspended by mechanical homogenization in 25 ml water and lysed on ice for 30 min. The homogenate was recentrifuged and the membrane lysis was repeated. The membranes were recentrifuged and the final pellet was resuspended in 14 volumes of water to give approximately 200 μg protein/100 μl final concentration. The suspension was stored at −80° C. prior to use. Protein concentrations were determined by Coomassie Plus Protein Assay (Pierce, Rockford, Ill.).
Nonspecific binding (NSB) was accounted for by the inclusion of thioperamide (10 μM). The samples were incubated for 40 min at 25° C. Samples were filtered through glass fiber strips, pre-washed with 0.3% polyethyleneimine, using a Brandell cell harvester. […] Filters were transferred to polyethylene minivials and counted in 3.5 ml of scintillation fluid (Ecolume, ICN Biomedicals, Inc.). […] Saturation and competition experiments were analyzed with the ReceptorFit saturation and competition curve fitting programs (Lundon Software, Inc., Cleveland, Ohio).

cat = conditions: cited from earlier work
rats = conditions: cited from earlier work
[1] = system: histamine synthesis and release; conditions: in vivo studies; cited from earlier work
[2] = system: electrically-induced convulsions; conditions: cited from earlier work

T1 sequence (Q9QYN8 whole entry): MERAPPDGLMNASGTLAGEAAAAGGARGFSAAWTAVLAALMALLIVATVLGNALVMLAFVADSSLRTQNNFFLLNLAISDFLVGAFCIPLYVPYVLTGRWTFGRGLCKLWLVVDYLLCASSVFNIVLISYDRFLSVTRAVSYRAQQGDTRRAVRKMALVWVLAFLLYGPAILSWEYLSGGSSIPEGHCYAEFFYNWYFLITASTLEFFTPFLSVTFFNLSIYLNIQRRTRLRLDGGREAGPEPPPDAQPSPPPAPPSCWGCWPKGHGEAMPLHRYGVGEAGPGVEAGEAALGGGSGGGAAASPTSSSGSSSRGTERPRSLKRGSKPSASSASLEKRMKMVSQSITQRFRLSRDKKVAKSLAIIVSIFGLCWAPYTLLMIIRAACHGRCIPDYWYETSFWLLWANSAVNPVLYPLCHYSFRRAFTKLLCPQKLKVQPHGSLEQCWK

Row | SMILES | Ki (Histamine H3 receptor) [nM] | further results
1 | N[C@@H](Cc1ccccc1)C(=O)NCCc1c[nH]cn1 [Example 1, 2-(S)-Amino-N-(2-imidazol-4-yletyl)-3-phenyl propanamide] | 104 ± 14 | 
2 | O=C(NCCc1c[nH]cn1)[C@@H]1CCCN1 [Example 2, N-(2-Imidazol-4-ylethyl)-(S)-pyrrolidin-2-ylformamide] | 202 ± 2 | 
3 | O=C(NCCc1c[nH]cn1)[C@@H]1Cc2ccccc2CN1 [Example 3] | 82.7 ± 7.7 | 
4 | N[C@H](Cc1ccccc1)C(=O)NCCc1c[nH]cn1 [Example 4, 2-(R)-Amino-N-(2-imidazol-4-yletyl)-3-phenyl propanamide] | > 10000 | 
5 | N[C@@H](Cc1ccc(F)cc1)C(=O)NCCc1c[nH]cn1 [Example 5, 2-(S)-Amino-3-(4-flurophenyl)-N-(2-imidazoyl-4-ylethyl)propanamide] | 84.5 ± 12.8 | 
6 | N[C@@H](CC1CCCCC1)C(=O)NCCc1cnc[nH]1 [Example 6, 2-(S)-Amino-3-cyclohexyl-N-(2-imidazol-4-ylethyl)propanamide] | 30.8 ± 2.1 | 
7 | CN[C@@H](Cc1ccccc1)C(=O)NCCc1c[nH]cn1 [Example 7] | 1650 ± 310 | 
8 | N[C@@H](Cc1cccc2ccccc12)C(=O)NCCc1c[nH]cn1 [Example 8, 2-(S)-Amino-N-(2-imidazol-4-ylethyl)-3-naphthylpropanamide] | 299 ± 82 | 
9 | N[C@H](C(=O)NCCc1c[nH]cn1)c1ccccc1 [Example 9, 2-(S)-Amino-N-(2-imidazol-4-ylethyl)-2-phenylethanamide] | 630 ± 51 | 
10 | CC(=O)N[C@@H](CC1CCCCC1)C(=O)NCCc1c[nH]cn1 [Example 10, 2-(S)-(Acetylamino)-3-cycohexyl-N-(2-imidazol-4-ylethyl)propanamide] | 5490 ± 255 | 
11 | N[C@@H](CCc1ccccc1)C(=O)NCCc1c[nH]cn1 [Example 11, 2-(S)-Amino-N-(2-imidazol-4-ylethyl)-4-phenylbutanamide] | 10.9 ± 1.7 | 
12 | O=C(NCCc1c[nH]cn1)[C@@H]1CC2CCCCC2N1 (stereo partly drawn) [Example 12, (7-Azabicyclo[4.3.0]non-(S)-8-yl)-N-(2-imidazol-4-ylethyl)formamide] | 11.1 ± 0.4 | 
13 | N[C@@H](Cc1ccc(OCc2ccccc2)cc1)C(=O)NCCc1c[nH]cn1 [Example 13, 2-(S)-Amino-N-(2-imidazol-4-ylethyl)-3-(4-(phenylmethoxy)phenyl) propanamide] | 199 ± 24 | 
14 | N[C@@H](COCc1ccccc1)C(=O)NCCc1c[nH]cn1 [Example 14, 2-(S)-Amino-N-(2-imidazol-4-ylethyl)-3-(phenylmethoxy)propanamide] | 122 ± 11 | 
15 | N[C@@H](CC(=O)OCc1ccccc1)C(=O)NCCc1c[nH]cn1 [Example 15, Phenylmethyl-3-(S)-amino-3-(N-(2-imidazol-4-ylethyl)carbamoyl)propanoate] | 81.6 ± 13.6 | 
16 | N[C@@H](Cc1c[nH]cn1)C(=O)NCCc1c[nH]cn1 [Example 16, 2-(S)-Amino-3-imidazol-4-yl-N-(2-imidazol-4-ylethyl)propanamide] | 3260 ± 457 | 
17 | c1nc(CCNC[C@@H]2CC3CCCCC3N2)c[nH]1 (stereo partly drawn) [Example 22, ((7-Azabicyclo[4.3.0]non-(S)-8-yl)methyl)(2-imidazol-4-ylethyl)amine] | 66 ± 4 | 
18 | C(#CCCc1c[nH]cn1)CCCc1ccccc1 [Example 39, 4-(7-Phenylhept-3-ynyl)imidazole] | 6.7 ± 0.6 | 
19 | C(=C/CCc1c[nH]cn1)/CCc1ccccc1 [Example 42, 4-(6-Phenylhex-cis-3-enyl)imidazole] | 5.5 ± 0.02 | 
20 | C[C@@H](N)Cc1cnc[nH]1 [RAMHA] |  | deep slow wave sleep (cat; oral administration): significant increase
21 | S=C(NC1CCCCC1)N1CCC(c2cnc[nH]2)CC1 [thioperamide] |  | wakefulness, slow wave and REM sleep (rats): increase wakefulness and decrease slow wave and REM sleep; synthesis and release of histamine [1]: increase in synthesis and release of histamine; wakefulness (cat): enhanced wakefulness in a dose-dependent fashion; durations of every convulsive phase ([2]; after electrically-induced convulsions): significantly and dose-dependently decrease; electroconvulsive threshold ([2]; in vivo): increase the electroconvulsive threshold

More lines, main results first:

Row | Ki (Histamine H3 receptor) [nM] | SMILES | further results
22 | 14 ± 3 | Cc1c(C)c(S(=O)(=O)NC(=N)NCCC[C@H](N)C(=O)NCCc2c[nH]cn2)c(C)c2c1OC(C)(C)CC2 [Example 17, 2-(S)-Amino-N-(2-imidazol-4ylethyl)-5-((imino(((2,2,5,7,8-pentamethylchroman-6-yl)sulfonyl)amino)methyl)amino)pentanamide] | 
23 | 45 ± 11 | CN(CCc1c[nH]cn1)C(=O)[C@@H]1CC2CCCCC2N1 (stereo partly drawn) [Example 18, (7-Azabicyclo[4.3.0]non-(S)-8-yl)-N-(2-imidazol-4-ylethyl)-N-methylformamide] | 
24 | 63 ± 1 | N=C(N)NCCC[C@H](N)C(=O)NCCc1c[nH]cn1 [Example 19, 5-(Amidinoamino)-2-(S)-amino-N-(2-imidazol-4-ylethyl)pentanamide] | 
25 | 122 ± 37 | CC(C)C[C@H](N)C(=O)NCCc1c[nH]cn1 [Example 20, 2-(S)-Amino-N-(2-imidazol-4-ylethyl)-4-methylpentanamide] | 
26 | 231 ± 15 | C[C@H](Cc1c[nH]cn1)NC(=O)[C@@H]1CC2CCCCC2N1 (stereo partly drawn) [Example 21] | 
27 | 2.9 ± 0.2 | C(#CCCC1CCCCC1)CCc1c[nH]cn1 [Example 23, 4-(6-Cyclohexylhex-3-ynyl)imidazole] | 
28 | 4.2 ± 0.6 | C(=C/CCC1CCCCC1)/CCc1c[nH]cn1 [Example 24, 4-(6-Cyclohexyl-cis-3-enyl)imidazole] | 
29 | 16 ± 2 | C(=C\CCC1CCCCC1)/CCc1c[nH]cn1 [Example 25, 4-(6-Cyclohexylhex-trans-3-enyl)imidazole] | 
30 | 1 ± 0.1 | N[C@H](/C=C/CCc1c[nH]cn1)CC1CCCCC1 [Example 26, 1-Cyclohexyl-6-imidazol-4-ylhex-trans-3-en-2-(S)-ylamine] | 
31 | 79 ± 22 | CCC#CCCc1c[nH]cn1 [Example 27, 4-Hex-3-ynylimidazole] | 
32 | 27 ± 7.5 | CCCC#CCCc1c[nH]cn1 [Example 28, 4-Heptyl-3-ynylimidazole] | 
33 | 3.7 ± 1.1 | CC(C)CCC#CCCc1c[nH]cn1 [Example 29, 4-(7-Methyloct-3-ynyl)imidazole] | 
34 | 0.95 ± 0.3 | C(#CCCC1CCCC1)CCc1c[nH]cn1 [Example 30, 4-(6-Cyclopentylhex-3-ynyl)imidazole] | 
35 | 0.8 ± 0.4 | CC(C)(C)CCC#CCCc1c[nH]cn1 [Example 32, 4-(7,7-Dimethyloct-3-ynyl)imidazole] | 
36 | 5.6 ± 1 | CCCCCC#CCCc1c[nH]cn1 [Example 33, 4-Non-3-ynylimidazole] | 
37 | 2.8 ± 0.7 | CCCCCCCC#CCCc1c[nH]cn1 [Example 34, 4-Undec-3-ynylimidazole] | 
38 | 1210 ± 80 | C(#CCCN1CCOCC1)CCc1c[nH]cn1 [Example 35, 4-(6-Imidazol-4-ylhex-3-ynyl)morpholine] | 
39 | 863 ± 139 | C(#Cc1c[nH]cn1)CCCC1CCCCC1 [Example 36, 4-(5-Cyclohexylpent-1-ynyl)imidazole] | 
40 | 3.4 ± 1.7 | C(#CCCc1c[nH]cn1)CCCC1CCCCC1 [Example 37, 4-(7-Cyclohexylhept-3-ynyl)imidazole] | 
41 | 591 ± 36 | C(#Cc1c[nH]cn1)CCCc1ccccc1 [Example 38, 4-(5-Phenylpent-1-ynyl)imidazole] | 
42 | 3 ± 0.2 | CCCCC#CCCc1c[nH]cn1 [Example 40, 4-Oct-3-ynylimidazole] | 
43 | 74.5 | c1ncc(CCCCCCC2CCCCC2)[nH]1 [Example 41, 4-(6-Cyclohexylhexyl)imidazole] | 
44 | 66 ± 5.5 | C#CCCc1c[nH]cn1 [Example 45, 4-But-3-ynylimidazole] | 
45 | > 10000 | C#Cc1c[nH]cn1 [Example 46, 4-Ethynylimidazole] | 
46 | 26 ± 9.6 | BrC(Br)=CCCc1c[nH]cn1 [Example 47, 4-(4,4-Dibromobut-3-enyl)imidazole] | 
47 | > 10000 | BrC(Br)=Cc1c[nH]cn1 [Example 48, 4-(2,2-Dibromovinyl)imidazole] | 
